Results from US9938279B2, “Method for treating disease or condition susceptible to amelioration by AMPK activators and compounds of formula which are useful to activate AMP-activated protein kinase (AMPK)” (ENERGENESIS BIOMEDICAL CO., LTD, priority 2013, dated 2018).

Assays:
[1] = test system: AMPK; assay: AMPK activation assay (western blot phospho-AMPK Thr172) in Hep G2; assay type: cell-based, human; details: Hep G2 cells, 30 min treatment
In short: (§1)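 Mouse C2C12, mouse 3T3-L1 and human Hep G2 cells in high-glucose DMEM/10% FBS were treated with compounds for 30 min, 24 h after plating. Lysates were western-blotted for phospho-AMPK (Thr172) and total AMPK, ECL-detected, and bands quantified by densitometry.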

[2] = test system: muscle cell C2C12; assay: Glucose uptake in vitro (fluorescent glucose analog 2-NBDG); assay type: cell-based, mouse; details: 30 min treatment, mean±SEM of three experiments
Procedure: Effects of representative compounds on glucose uptake were analyzed in muscle cell C2C12 by using fluorescent glucose analog (2-NBDG, Molecular Probes). C2C12 were treated with selected novel AMPK activator for 30 min at 37° C. then exposed to 500 μM of fluorescent glucose analog. After 5 min incubation at room temperature, cells were washed three times with Kreb-Hepes buffered solution and fix in 70% alcohol. The fluorescence of glucose analog in cells was detected using a Fluorescence Microplate Reader System at 480-nm excitation and 530-nm emission wavelength.
Data are presented as the mean±SEM of three independent experiments.

[3] = test system: AMPK; assay: AMPK activation assay (western blot phospho-AMPK Thr172) in 3T3-L1; assay type: cell-based, mouse; details: 3T3-L1 cells, 30 min treatment
In short: as §1

[4] = test system: AMPK; assay: AMPK activation assay (western blot phospho-AMPK Thr172) in C2C12; assay type: cell-based, mouse; details: C2C12 cells, 30 min treatment
In short: as §1

## Oc1nc(NC2CCCCC2)nc2nc[nH]c12 [2-cyclohexylamino-6-hydroxypurine]
[1]; 1 microM
  AMPK activation (% to control) Hep G2: 111 % to control
[1]; 10 microM
  AMPK activation (% to control) Hep G2: 137 % to control
[1]; 100 microM
  AMPK activation (% to control) Hep G2: 248 % to control
[1]; 200 microM
  AMPK activation (% to control) Hep G2: 351 % to control
[2]; C2C12, 1 microM
  Glucose uptake (% to control): 108 ± 2.1 % to control
[2]; C2C12, 10 microM
  Glucose uptake (% to control): 195 ± 11.9 % to control
[2]; C2C12, 100 microM
  Glucose uptake (% to control): 251 ± 16.2 % to control
[2]; C2C12, 600 microM
  Glucose uptake (% to control): 311 ± 10.7 % to control
[3]; 1 microM
  AMPK activation (% to control) 3T3-L1: 118 % to control
[3]; 10 microM
  AMPK activation (% to control) 3T3-L1: 172 % to control
[3]; 100 microM
  AMPK activation (% to control) 3T3-L1: 283 % to control
[3]; 200 microM
  AMPK activation (% to control) 3T3-L1: 375 % to control
[4]; 1 microM
  AMPK activation (% to control) C2C12: 108 % to control
[4]; 10 microM
  AMPK activation (% to control) C2C12: 118 % to control
[4]; 100 microM
  AMPK activation (% to control) C2C12: 209 % to control
[4]; 200 microM
  AMPK activation (% to control) C2C12: 321 % to control

## Cc1ccc(CNc2ncnc3nc[nH]c23)cc1 [6-(4-methylbenzylamino)purine]
[1]; 1 microM
  AMPK activation (% to control) Hep G2: 106 % to control
[1]; 10 microM
  AMPK activation (% to control) Hep G2: 121 % to control
[1]; 100 microM
  AMPK activation (% to control) Hep G2: 245 % to control
[1]; 200 microM
  AMPK activation (% to control) Hep G2: 348 % to control
[2]; C2C12, 1 microM
  Glucose uptake (% to control): 114 ± 9.2 % to control
[2]; C2C12, 10 microM
  Glucose uptake (% to control): 205 ± 14.6 % to control
[2]; C2C12, 100 microM
  Glucose uptake (% to control): 281 ± 11.5 % to control
[2]; C2C12, 600 microM
  Glucose uptake (% to control): 309 ± 9.1 % to control
[3]; 1 microM
  AMPK activation (% to control) 3T3-L1: 110 % to control
[3]; 10 microM
  AMPK activation (% to control) 3T3-L1: 163 % to control
[3]; 100 microM
  AMPK activation (% to control) 3T3-L1: 259 % to control
[3]; 200 microM
  AMPK activation (% to control) 3T3-L1: 347 % to control
[4]; 1 microM
  AMPK activation (% to control) C2C12: 112 % to control
[4]; 10 microM
  AMPK activation (% to control) C2C12: 158 % to control
[4]; 100 microM
  AMPK activation (% to control) C2C12: 270 % to control
[4]; 200 microM
  AMPK activation (% to control) C2C12: 358 % to control

## Oc1ncnc2nc[nH]c12 [6-hydroxypurine]
[1]; 1 microM
  AMPK activation (% to control) Hep G2: 114 % to control
[1]; 10 microM
  AMPK activation (% to control) Hep G2: 146 % to control
[1]; 100 microM
  AMPK activation (% to control) Hep G2: 165 % to control
[1]; 200 microM
  AMPK activation (% to control) Hep G2: 330 % to control
[2]; C2C12, 1 microM
  Glucose uptake (% to control): 109 ± 2.2 % to control
[2]; C2C12, 10 microM
  Glucose uptake (% to control): 242 ± 23.7 % to control
[2]; C2C12, 100 microM
  Glucose uptake (% to control): 289 ± 21.4 % to control
[2]; C2C12, 600 microM
  Glucose uptake (% to control): 318 ± 21.2 % to control
[3]; 1 microM
  AMPK activation (% to control) 3T3-L1: 118 % to control
[3]; 10 microM
  AMPK activation (% to control) 3T3-L1: 155 % to control
[3]; 100 microM
  AMPK activation (% to control) 3T3-L1: 198 % to control
[3]; 200 microM
  AMPK activation (% to control) 3T3-L1: 325 % to control
[4]; 1 microM
  AMPK activation (% to control) C2C12: 120 % to control
[4]; 10 microM
  AMPK activation (% to control) C2C12: 148 % to control
[4]; 100 microM
  AMPK activation (% to control) C2C12: 233 % to control
[4]; 200 microM
  AMPK activation (% to control) C2C12: 341 % to control

## NC(=O)c1ncn([C@@H]2O[C@H](CO)[C@@H](O)[C@H]2O)c1N [AICAR, 5-amino-1-β-D-ribofuranosyl-imidazole-4-carboxamide, reference compound]
[1]; 1200 microM
  AMPK activation (% to control) Hep G2: 319 % to control
[2]; C2C12, 1200 microM
  Glucose uptake (% to control): 264 ± 19.2 % to control
[3]; 1200 microM
  AMPK activation (% to control) 3T3-L1: 340 % to control
[4]; 1200 microM
  AMPK activation (% to control) C2C12: 335 % to control

## Nc1nc2nc[nH]c2c(=O)[nH]1 [Guanine]
[1]; 1 microM
  AMPK activation (% to control) Hep G2: 119 % to control
[1]; 10 microM
  AMPK activation (% to control) Hep G2: 144 % to control
[1]; 100 microM
  AMPK activation (% to control) Hep G2: 199 % to control
[1]; 200 microM
  AMPK activation (% to control) Hep G2: 335 % to control
[3]; 1 microM
  AMPK activation (% to control) 3T3-L1: 107 % to control
[3]; 10 microM
  AMPK activation (% to control) 3T3-L1: 121 % to control
[3]; 100 microM
  AMPK activation (% to control) 3T3-L1: 208 % to control
[3]; 200 microM
  AMPK activation (% to control) 3T3-L1: 312 % to control
[4]; 1 microM
  AMPK activation (% to control) C2C12: 105 % to control
[4]; 10 microM
  AMPK activation (% to control) C2C12: 117 % to control
[4]; 100 microM
  AMPK activation (% to control) C2C12: 241 % to control
[4]; 200 microM
  AMPK activation (% to control) C2C12: 304 % to control

## O=c1[nH]cnc2nc[nH]c12 [Hypoxanthine]
[1]; 1 microM
  AMPK activation (% to control) Hep G2: 105 % to control
[1]; 10 microM
  AMPK activation (% to control) Hep G2: 124 % to control
[1]; 100 microM
  AMPK activation (% to control) Hep G2: 225 % to control
[1]; 200 microM
  AMPK activation (% to control) Hep G2: 341 % to control
[3]; 1 microM
  AMPK activation (% to control) 3T3-L1: 108 % to control
[3]; 10 microM
  AMPK activation (% to control) 3T3-L1: 128 % to control
[3]; 100 microM
  AMPK activation (% to control) 3T3-L1: 231 % to control
[3]; 200 microM
  AMPK activation (% to control) 3T3-L1: 335 % to control
[4]; 1 microM
  AMPK activation (% to control) C2C12: 108 % to control
[4]; 10 microM
  AMPK activation (% to control) C2C12: 121 % to control
[4]; 100 microM
  AMPK activation (% to control) C2C12: 238 % to control
[4]; 200 microM
  AMPK activation (% to control) C2C12: 309 % to control

## Cc1c[nH]c(=O)[nH]c1=O [Thymine, thymine]
[1]; 1 microM
  AMPK activation (% to control) Hep G2: 110 % to control
[1]; 10 microM
  AMPK activation (% to control) Hep G2: 113 % to control
[1]; 100 microM
  AMPK activation (% to control) Hep G2: 218 % to control
[1]; 200 microM
  AMPK activation (% to control) Hep G2: 303 % to control
[2]; C2C12, 1 microM
  Glucose uptake (% to control): 110 ± 3.2 % to control
[2]; C2C12, 10 microM
  Glucose uptake (% to control): 167 ± 15.1 % to control
[2]; C2C12, 100 microM
  Glucose uptake (% to control): 215 ± 18.2 % to control
[2]; C2C12, 600 microM
  Glucose uptake (% to control): 283 ± 22.3 % to control
[3]; 1 microM
  AMPK activation (% to control) 3T3-L1: 109 % to control
[3]; 10 microM
  AMPK activation (% to control) 3T3-L1: 129 % to control
[3]; 100 microM
  AMPK activation (% to control) 3T3-L1: 235 % to control
[3]; 200 microM
  AMPK activation (% to control) 3T3-L1: 318 % to control
[4]; 1 microM
  AMPK activation (% to control) C2C12: 117 % to control
[4]; 10 microM
  AMPK activation (% to control) C2C12: 147 % to control
[4]; 100 microM
  AMPK activation (% to control) C2C12: 266 % to control
[4]; 200 microM
  AMPK activation (% to control) C2C12: 354 % to control

## O=c1cc[nH]c(=O)[nH]1 [Uracil]
[1]; 1 microM
  AMPK activation (% to control) Hep G2: 118 % to control
[1]; 10 microM
  AMPK activation (% to control) Hep G2: 144 % to control
[1]; 100 microM
  AMPK activation (% to control) Hep G2: 237 % to control
[1]; 200 microM
  AMPK activation (% to control) Hep G2: 359 % to control
[3]; 1 microM
  AMPK activation (% to control) 3T3-L1: 114 % to control
[3]; 10 microM
  AMPK activation (% to control) 3T3-L1: 123 % to control
[3]; 100 microM
  AMPK activation (% to control) 3T3-L1: 248 % to control
[3]; 200 microM
  AMPK activation (% to control) 3T3-L1: 372 % to control
[4]; 1 microM
  AMPK activation (% to control) C2C12: 105 % to control
[4]; 10 microM
  AMPK activation (% to control) C2C12: 109 % to control
[4]; 100 microM
  AMPK activation (% to control) C2C12: 264 % to control
[4]; 200 microM
  AMPK activation (% to control) C2C12: 358 % to control
